Measurements reported in US20240335364A1, “COMPOSITIONS OF DICAFFEOYLQUINIC ACIDS WITH TOCOPHEROL” (SYMRISE AG, priority 2021, published 2024).

Columns and labels:
HSPB2 = experiment: Modulation of HSPB2 gene expression of keratinocytes (real-time qPCR, RQ); assay type: cell-based, human; set-up: key: relative quantity vs DMSO vehicle control (qPCR); conditions: nHEK, 24 h, 0.005% alone; Example 4
Description: (§1) Neonatal human epidermal keratinocytes (nHEK) were cultivated in an EpiLife® medium (Gibco) including an HKGS kit (Gibco) with 5% CO2 at 37° C. in accordance with the supplier's instructions. The cells were treated for 24 hours, with 0.0005% of the different dicaffeoylquinic acids from above dissolved in DMSO and DMSO alone as the vehicle control. Genomic target expression levels in treated cells were measured using a quantitative Real-Time PCR comparison to vehicle control treatment.
(§2) RNA was isolated using Qiagen's RNeasy® Mini Kit. The total RNA concentrations were measured using Eppendorf's μCuvetteG 1.0 and BioPhotometer, by measuring the absorption at 260 nm. Purity control values such as E260/280 and E260/230 were calculated simultaneously. Reverse transcription was performed using the high-capacity RNA-to-cDNA kit of Applied Biosystems, in accordance with the supplier's instructions. Samples were treated in Biometra's PCR Thermocycler. For fast real-time qPCR, the cDNA was diluted with RNase-free water, and the TaqMan™ Fast Universal PCR Master Mix of Applied Biosystems was used. Quantitative real time PCR was performed using the StepOnePlus fast real-time PCR instrument by Applied Biosystems. Analysis was conducted using the StepOne software and […] (normalised to endogenous control […] expression). For upregulations, RQ values ≥2.5 are considered to be relevant.
(§3) Neonatal human epidermal keratinocytes (nHEK) were cultivated as described in Example 1 and treated for 24 hours with 0.0007% of the different monocaffeoylquinic acids. Afterwards fast real-time qPCR was performed as described in above using a customised gene array.
(§4) Neonatal human epidermal keratinocytes (nHEK) were cultivated as described in Example 1 and treated for 24 hours with 4,5-dicaffeoylquinic acid (CAS number 14534-61-3, Phytolab GmbH & Co. KG) and (±)-α-tocopherol (CAS number 10191-41-0, synonym: Synonym: DL-α-Tocopherol, Vitamin E, Sigma-Aldrich, synthetic) alone and in combination. Afterwards fast real-time qPCR was performed as described in above using a customised gene array.
(§5) [formula] • With • A=RQ value by 4,5-dicaffeoylquinic acid at concentration x • B=RQ value by tocopherol at concentration y • C=RQ value by the combination of 4,5-dicaffeoylquinic acid at concentration x/2 and tocopherol at concentration y/2 • D=Factor for 4,5-dicaffeoylquinic acid=>0.5 (due to half concentration tested in the combination) • E=Factor for tocopherol=>0.5 (due to half concentration tested in the combination) • A SI=1 is obtained for additive activity of the two combined components, whereas a SI <1 proves antagonistic activity (observed efficacy is lower than additive) and SI >1 proves synergistic activity (observed efficacy is higher than additive).
(§6) Neonatal human epidermal keratinocytes (nHEK) were cultivated as described above and treated for 24 hours with yarrow extract of example 3 (Achillea millefolium, freeze-dried fresh press juice of flowering aerials, cultivated in Germany) and (±)-α-tocopherol (CAS number 10191-41-0, synonym: Synonym: DL-α-Tocopherol, Vitamin E, Sigma-Aldrich, synthetic) alone and in two combinations. Afterwards fast real-time qPCR was performed as described in above using a customised gene array.

HSPB8 = experiment: Modulation of HSPB8 gene expression of keratinocytes (real-time qPCR, RQ); assay type: cell-based, human; set-up: key: RQ: expression relative to DMSO vehicle control (qPCR); conditions: nHEK, 24 h
Description: as §1, §2, §3
(§7) Neonatal human epidermal keratinocytes (nHEK) were cultivated as described in Example 1 and treated for 24 hours with 0.005% of the extract samples. Afterwards fast real-time qPCR was performed as described in above using a customized gene array.
as §4, §5, §6

CRYAB = experiment: Modulation of CRYAB gene expression of keratinocytes (real-time qPCR, RQ); assay type: cell-based, human; set-up: key: relative quantity (RQ) vs DMSO vehicle-treated control; conditions: nHEK, 24 h
Description: as §1, §2, §3, §7, §4, §5
Neonatal human epidermal keratinocytes (nHEK) were cultivated as described above and treated for 24 hours with 3,5-dicaffeoylquinic acid (CAS number 2450-53-5, Phytolab GmbH & Co. KG) and D-α-tocopherol (CAS number 59-02-9, synonym: (+)-α-tocopherol, Vitamin E, trade name: Copherol® F 1300 C, BTC Europe GmbH) alone and in combination. Afterwards fast real-time qPCR was performed as described in above using a customised gene array.
(§8) Neonatal human epidermal keratinocytes (nHEK) were cultivated as described above and treated for 24 hours with yarrow extract of example 3 (Achillea millefolium, freeze-dried fresh press juice of flowering aerials, cultivated in Germany) and (±)-α-tocopherol (CAS number 10191-41-0, synonym: Synonym: DL-α-Tocopherol, Vitamin E, Sigma-Aldrich, synthetic) alone and in two combinations. Afterwards fast real-time qPCR was performed as described in above using a customised gene array. […]

CLDN1 = experiment: Modulation of CLDN1 gene expression of keratinocytes (real-time qPCR, RQ); assay type: cell-based, human; conditions: nHEK, 24 h
Description: as §1, §2, §3, §7, §4, §5
(§9) Neonatal human epidermal keratinocytes (nHEK) were cultivated as described in Example 1 and treated for 24 hours with 3,4-dicaffeoylquinic acid (CAS number 57378-72-0, Phytolab GmbH & Co. KG) and (+)-α-tocopherol (CAS number 59-02-9, synonym: Synonym: D-α-tocopherol, Vitamin E, Sigma-Aldrich) alone and in combination. Afterwards fast real-time qPCR was performed as described in above using a customised gene array. For upregulations, RQ values ≥2.5 are considered to be relevant.
as §6

OCLN = experiment: Modulation of OCLN gene expression of keratinocytes (real-time qPCR, RQ); assay type: cell-based, human; set-up: key: RQ: expression relative to DMSO vehicle control (qPCR); conditions: nHEK, 24 h
Description: as §1, §2, §3, §7, §4, §5, §6

DEFB1 = experiment: Modulation of DEFB1 gene expression of keratinocytes (real-time qPCR, RQ); assay type: cell-based, human; set-up: key: RQ = expression relative to DMSO vehicle control (qPCR); conditions: nHEK, 24 h
Description: as §1, §2, §3, §4, §5, §6
Neonatal human epidermal keratinocytes (nHEK) were cultivated as described above and treated for 24 hours with yarrow extract of example 3 (Achillea millefolium, freeze-dried fresh press juice of flowering aerials, cultivated in Germany) and (+)-α-tocopherol (CAS number 59-02-9, synonym: Synonym: D-α-tocopherol, Vitamin E, Sigma-Aldrich) alone and in combination. Afterwards fast real-time qPCR was performed as described in above using a customised gene array.

DSC1 = experiment: Modulation of DSC1 gene expression of keratinocytes (real-time qPCR, RQ); assay type: cell-based, human; set-up: key: RQ: expression relative to DMSO vehicle control; conditions: nHEK, 24 h
Description: as §1, §2, §3, §7, §4, §5, §9, §8

DSG1 = experiment: Modulation of DSG1 gene expression of keratinocytes (real-time qPCR, RQ); assay type: cell-based, human; set-up: key: relative quantity vs DMSO vehicle control (qPCR); conditions: nHEK, 24 h
Description: as §1, §2, §3, §7, §4, §5, §9
Neonatal human epidermal keratinocytes (nHEK) were cultivated as described above and treated for 24 hours with 3,5-dicaffeoylquinic acid (CAS number 2450-53-5, Phytolab GmbH & Co. KG) and D-α-tocopherol (CAS number 59-02-9, synonym: (+)-α-tocopherol, Vitamin E, trade name: Copherol® F 1300 C, BTC Europe GmbH) alone and in combination. Afterwards fast real-time qPCR was performed as described in above using a customised gene array. […]

[1] = tested on: Neonatal human epidermal keratinocytes (nHEK); experiment: Modulation of gene expression of keratinocytes, whole gene array (statements in words); assay type: cell-based; conditions: 24 h, tocopherol alone at 0.005%
Description: as §1, §2, §3, §7

[2] = 0.005% tocopherol alone, Example 7, Table 9
[3] = 0.005% tocopherol alone, Example 7, Table 10

(±)-α-tocopherol [(±)-alpha-tocopherol]
RQ value HSPB2 (HSPB2): 1.4
RQ value HSPB8 (HSPB8; 0.005% alone, Example 4): 1.0
RQ value HSPB8 (HSPB8; [2]): 1.2
RQ value HSPB8 (HSPB8; [3]): 2.3
RQ value CRYAB (CRYAB; 0.005% alone, Example 4): 1.4
RQ value CRYAB (CRYAB; [2]): 1.3
RQ value CLDN1 (CLDN1; 0.005% alone, Example 4): 1.2
RQ value CLDN1 (CLDN1; [2]): 1.3
RQ value CLDN1 (CLDN1; [3]): 1.8
RQ value OCLN (OCLN; 0.005% alone, Example 4): 1.7
RQ value OCLN (OCLN; [2]): 2.4
RQ value DEFB1 (DEFB1; 0.005% alone, Example 4): 1.3
RQ value DEFB1 (DEFB1; [2]): 1.7
RQ value DSC1 (DSC1; 0.005% alone, Example 4): 1.1
RQ value DSC1 (DSC1; [2]): 1.3
RQ value DSC1 (DSC1; [3]): 1.9
RQ value DSG1 (DSG1; 0.005% alone, Example 4): 1.3
RQ value DSG1 (DSG1; [2]): 1.4
RQ value DSG1 (DSG1; [3]): 2.0
relevant modulation of the selected genes (RQ ≥2.5) [1]: does not relevantly modulate any of the selected genes
